Results on 7 compounds are retold here after patent US10500169B2, “Supression of IgE production by compounds derived from traditional chinese medicine” (Sean N. Parker Foundation, priority 2014, dated 2019).

Values after ≈ are worked out from the molar mass of the structure shown.

The subject of series [1] is U266 cells. Description: IgE production by U266 myeloma cells, ELISA of supernatants. The class given is cell-based, human. Particulars: for effect on IgE production by U266 cells (in words): different concentrations; for IC50: 6 days culture, read-out: IC50 of inhibition of IgE production by U266 cells. How it is done:
The IgE producing human U266 myeloma cell line (American Type Culture Collection; Rockville, Md.) has been used for screening pharmaceutical agents for IgE inhibitory effects, and thus this cell line was used to test the potential IgE inhibitory effects of herb extracts and purified compounds. Cells were cultured at 37° C. under 5% CO2 in complete media containing RPMI 1640 medium supplemented, 10% FBS, 1 mM sodium pyruvate, 1×10^-5 M β-ME and 0.5% penicillin-streptomycin. Cells were grown at an initial concentration of 2×10^5 cells/mL. FAHF-2 and B-FAHF-2, individual herb extracts and isolated compounds at different concentrations were added at day 0. Supernatants were harvested after 6 days culture, and IgE levels were determined by using an ELISA Kit (Mabtech Inc, OH). In each experiment, we run duplicate ELISA. In vitro experiments were repeated at least 3 times.
Human U266 myeloma cells (American Type Culture Collection; Rockville, Md.) were cultured in complete medium (RPMI 1640 medium supplemented, 10% FBS, 1 mM sodium pyruvate, 1×10^−5 M β-ME and 0.5% penicillin-streptomycin) at 37° C. under 5% CO2. Cells were grown at an initial concentration of 2×10^5 cells/mL with purpurin and alizarin from Rubia cordifolia L. at different concentrations (0.31, 0.62, 1.25, 2.5, 5 μg/mL), and with arctiin and arctigenin from Arctium lappa L. at different concentrations ([…]) for 6 days. The supernatants were harvested on day 6 for total IgE analysis using ELISA.
Background: In an ELISA, binding on a coated surface is turned into a signal by an enzyme label.

In series [2] the test system is peanut sensitized C3H/HeJ Mice. Description: Peanut allergic mouse model, 1,3-Dihydroxyanthraquinone 200 μg per mouse per day for seven weeks. The class given is in vivo. Here is the method:
FIG. 10 illustrates the in vivo experiment protocol. C3H/HeJ Mice were orally sensitized with 10 mg peanut and […] weekly for 5 weeks as described in methods. At weeks 6, 7 and 8, mice were boosted with 50 mg peanut mixed with cholera toxin. Seven weeks of 1,3-Dihydroxyanthraquinone (200 μg per mouse per day) treatment was started at W6. Mice were challenged with PN at week 13 and again at week 18. Mice were sacrificed 48 hours after last challenge.

For series [3], the system named is peanut allergic C3H/HeJ mice. The series can be described thus: Peanut allergic mouse model, 400 μg of compound intragastrically daily for 4 weeks. The class given is in vivo. Particulars: for body temperature following PN challenge: 30 minutes after oral challenge; for histamine level in plasma: week 15 post therapy challenge. Here is the method: Freshly ground, whole roasted peanuts were homogenized in sterile PBS (Mediatech, VA) until a smooth suspension was obtained. Female C3H/HeJ mice were sensitized intragastrically (i.g.) with ground PN (10 mg/mouse) and cholera toxin (20 μg), on three consecutive days at week 0, and once a week for 5 weeks, and boosted at weeks 6 and 8 with 50 mg/mouse of PN and cholera toxin (20 μg) (FIG. 37A) as previous described^(40). Mice were intragastrically administered with 400 μg of three different active compounds (arctiin and arctigenin from Arctium lappa L., and 1,3-Dihydroxyanthraquinone from Rubia cordifolia L.) daily 24 h after the week 8 boosting and under this treatment for 4 weeks. Eight PN sensitized/boosted mice receiving 0.5 ml of 0.1% DMSO in water twice daily for the same period of treatment time as sham control mice for this experiment.
Anaphylactic symptoms were evaluated 30 min after challenge dose by two investigators using a scoring system described previously: […]; 1, scratching and rubbing around the snout and head; 2, puffiness around the eyes and mouth, pilar erection and reduced activity with an increased respiratory rate; 3, wheezing, labored respiration and cyanosis around the mouth; 4, no activity after prodding, or tremors, and convulsion; 5, death due to anaphylaxis.
To test the IgE inhibition effect of arctiin, arctigenin, and 1,3-dihydroxyanthraquinone in vivo, we treated peanut allergic mice with 400 μg of each active compound daily for four weeks, as shown in FIG. 37A.^(2)

The subject of series [4] is U266 cells. Description: Cell viability of U266 cells, trypan blue exclusion. The class given is cell-based, human. Particulars: at the concentrations tested. Here is the method:
Cell viability was evaluated using a trypan blue exclusion as previously described. Briefly, a 10 μl of cells suspension from each culture was mixed with equal volume of trypan blue dye. The mixture was loaded into a hemocytometer and cells were counted under a microscope. The percentage of viable cells was calculated as follows: Viable cells (%)=(total number of viable cells)/(total number of cells)×100.

A further series deals with human PBMCs. The series can be described thus: IgE production by PBMCs from food allergic patients stimulated with rIL-4 and anti-CD40 mAb, ELISA. The class given is cell-based. Particulars: Homo sapiens, PBMC, 240 h; 20 μg/mL, 10 days, rIL-4 100 ng/mL + anti-CD40 mAb 1 μg/mL. How it is done: PBMCs were isolated by Ficoll Hypaque (Pharmacia, Piscataway, N.J.) using density gradient centrifugation at 1800 RPM for 30 minutes, and washed 3 times in PBS. To determine the optimal stimulation of IgE production by PBMCs, PBMCs at 1.5×10^6 cells/mL were suspended in complete RPMI medium (200 μM L-glutamine, 1% penicillin/streptomycin, 25 mM HEPES, 10% heat inactivated fetal calf serum), and co-stimulated with human recombinant IL-4 (rIL-4) at 0.01 and 0.1 μg/mL (R&D Systems, Minneapolis, Minn., USA) and anti-CD40 monoclonal antibody (mAb) at […] (R&D) for 10 and 14 days. At the end of incubation, the supernatants were collected and IgE levels were analyzed using ELISA kit (Mabtech Inc, OH). Since PBMCs stimulated with 100 ng/mL rIL-4 and 1 μg/mL anti-CD40 mAb produced the highest level of IgE, we used this culture condition for the subsequent studies. PBMCs were stimulated with 100 ng/mL rIL-4 and 1 μg/mL anti-CD40 mAb and cultured in the presence or absence of 20 μg/mL of the two purified compounds for 10 days for screening active compounds, and at different concentrations (0.15, 0.31, 0.62, 1.25, 2.5, 5, 10 μg/mL) to examine dose responses for the effective compounds. IgE level was evaluated using ELISA. The percentage of IgE inhibition was calculated as follows: […]. In some cases if enough PBMCs were obtained, aliquots of PBMCs prepared from the same individuals were used for different experiments.

For series [5], the system named is peanut-allergic patients with high levels of IgE. The conditions noted are these: cited from earlier work.
The next series concerns peanut allergy subjects. Particulars: cited from earlier work.

For `O=C1c2ccccc2C(=O)c2c(O)cc(O)cc21` [1,3-Dihydroxyanthraquinone], in the series with U266 cells [1] (6 days), the “effect on IgE production by U266 cells (in words)” value (from here on “effect on IgE production”) is on record as “dose-dependent inhibition”. Further, the “symptom scores following peanut challenge” value in series [2] (vs sham) is given as “significantly weaker reactions”. Besides, the “Peanut-Specific IgE levels” value in series [2] (weeks 12 and 16) was “markedly reduced”. In addition, the “protection against acute peanut induced anaphylaxis” value in series [3] (400 μg daily for four weeks) was “protected against the acute anaphylaxis”. For the same compound, the “median anaphylactic symptom score” value in series [3] (400 μg daily for four weeks, vs sham) is recorded as “significant lower”. Moreover, the “body temperature following PN challenge” value in series [3] is given as “normal body temperatures”. Also, the “histamine level in plasma” value in series [3] (vs sham) is “significantly decreased”.

In general, IC50 refers to the concentration that inhibits the measured activity by half. Consider `O=C1c2ccccc2C(=O)c2c1ccc(O)c2O` [alizarin], for which the IC50 in the series on U266 cells [1] (Homo sapiens, U-266, 144 h) came to 0.762 µg/mL (≈ 3.17 µM). Further, the “effect on IgE production” value with U266 cells [1] (6 days) is recorded as “inhibited the IgE production in a dose-dependent manner”.

Consider `COc1cc(C[C@H]2C(=O)OC[C@@H]2Cc2ccc(OC)c(OC)c2)ccc1O` [arctigenin], for which, in the series with U266 cells [1] (6 days), the “effect on IgE production” value is listed as “inhibited the IgE production by U266 in dose-dependent manner”. Further, the “protection against acute peanut induced anaphylaxis” value in series [3] (400 μg daily for four weeks) is “protected against the acute anaphylaxis”. Moreover, the “body temperature following PN challenge” value in series [3] is “normal body temperatures”. For the same compound, the “histamine level in plasma” value in series [3] (vs sham) is “significantly decreased”.

For the compound `COc1ccc(C[C@H]2COC(=O)[C@@H]2Cc2ccc(O[C@@H]3O[C@H](CO)[C@@H](O)[C@H](O)[C@H]3O)c(OC)c2)cc1OC` [arctiin], in the series with U266 cells [1] (6 days), the “effect on IgE production” value was “inhibited the IgE production by U266 in dose-dependent manner”.

Broadly, the inhibition is how much of the control response was suppressed. Take `CC1(C)O[C@H]2CC(=O)OC[C@]23[C@H]2CC[C@@]4(C)[C@H](c5ccoc5)OC(=O)[C@H]5O[C@]54[C@]2(C)C(=O)C[C@@H]13` [limonin]: the inhibition at 20 µg/mL in the series on U266 cells [1] (Homo sapiens, U-266, 144 h, 20 μg/mL, 6 days) was 35.1%; in the series with human PBMCs, 33.9%. Moreover, the “effect on IgE production” value with U266 cells [1] (6 days) is on record as “mild reduction of IgE production”. Moreover, the “cell viability of U266 cells” value with U266 cells [4] was “no toxicity”.

With `O=C1c2ccccc2C(=O)c2c(O)c(O)cc(O)c21` [purpurin], the IC50 with U266 cells [1] (Homo sapiens, U-266, 144 h) turned out to be 0.353 µg/mL (≈ 1.38 µM). In the series with U266 cells [1] (6 days), the “effect on IgE production” value is on record as “inhibited the IgE production in a dose-dependent manner”.

In the case of “omalizumab: anti-IgE antibody (Xolair, Genentech)”, the “subjects tolerating 4000 mg of peanut flour” value in series [5] (after 7-12 weeks) was “Twelve of thirteen”. For the same compound, in series [5] (first day), the “subjects tolerating a cumulative dose of 992 mg peanut flour” value was “All thirteen”. In addition, the patients requiring epinephrine in series [5] (in vivo) is 2 patients. Moreover, in the series on peanut allergy subjects (post-therapy (24-week), vs placebo), the “peanut tolerability in oral food challenge” value is reported as “greater shift in peanut tolerability”. Moreover, the “serum peanut specific IgE” value with peanut allergy subjects (post-therapy) is given as “reduction of serum peanut specific IgE”.
